Measured values published in PubChem BioAssay AID1963425 (Molecular Pharmacology Branch, DTP, NCI, 2024).

Tested on: 323965-272-R-J2-PDC complex spheroid growth, % test/control
Assay: Anticancer human tumor 323965-272-R-J2-PDC patient-derived pancreatic carcinoma cell line growth inhibition [Asc]
Details: for IC50: curve of first compound; for viability, T/C: stronger effect = lower value
Method in brief: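 Stromal components (HUVEC and hMSC) are co-assembled with the cancer cells into multicellular spheroids. Drugs are then added singly or paired, at concentrations falling by half-log increments from a clinically achievable maximum, capped at 10 microM without known Cmax.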

[1] = second compound 0.0316 µM, first compound 0.00316 µM
[2] = second compound 0.0316 µM, first compound 0.01 µM
[3] = second compound 0.0316 µM, first compound 0.0316 µM
[4] = second compound 0.0316 µM, first compound 0.1 µM
[5] = second compound 0.1 µM, first compound 0.00316 µM
[6] = second compound 0.1 µM, first compound 0.01 µM
[7] = second compound 0.1 µM, first compound 0.0316 µM
[8] = second compound 0.1 µM, first compound 0.1 µM
[9] = second compound 0.316 µM, first compound 0.00316 µM
[10] = second compound 0.316 µM, first compound 0.01 µM
[11] = second compound 0.316 µM, first compound 0.0316 µM
[12] = second compound 0.316 µM, first compound 0.1 µM
[13] = second compound 1 µM, first compound 0.00316 µM
[14] = second compound 1 µM, first compound 0.01 µM
[15] = second compound 1 µM, first compound 0.0316 µM
[16] = second compound 1 µM, first compound 0.1 µM
[17] = second compound 3.16 µM, first compound 0.00316 µM
[18] = second compound 3.16 µM, first compound 0.01 µM
[19] = second compound 3.16 µM, first compound 0.0316 µM
[20] = second compound 3.16 µM, first compound 0.1 µM
[21] = second compound 10 µM, first compound 0.00316 µM
[22] = second compound 10 µM, first compound 0.01 µM
[23] = second compound 10 µM, first compound 0.0316 µM
[24] = second compound 10 µM, first compound 0.1 µM
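Further: compound exposure lasted 7 days starting three days after spheroid seeding.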
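Wherever viability, T/C is given: 100% = DMSO vehicle control wells with viability set relative to vehicle.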

COc1c(OCCCN2CCOCC2)ccc2c3n(c(=NC(=O)c4cnc(N)nc4)nc12)CCN3 + Cc1c(S(C)(=O)=O)c(-c2cc(F)cc(N3CCN(c4ccc(NS(=O)(=O)c5ccc(NC(CCN6CCC(C(=O)OCCCP(=O)(O)O)CC6)CSc6ccccc6)c(S(=O)(=O)C(F)(F)F)c5)cc4)CC3)c2)c(-c2ccc(Cl)cc2)n1C(C)C
IC50 (second compound 0.0316 µM): 166 nM | IC50 (second compound 0.1 µM): 180 nM | IC50 (second compound 0.316 µM): 116 nM | IC50 (second compound 1 µM): 106 nM | IC50 (second compound 3.16 µM): 77.1 nM | IC50 (second compound 10 µM): 36.5 nM | viability, T/C [1]: 110% | viability, T/C [2]: 97.1% | viability, T/C [3]: 86.4% | viability, T/C [4]: 58.3% | viability, T/C (second compound 0.0316 µM, first compound 0.316 µM): 37.9% | viability, T/C (second compound 0.0316 µM, first compound 1 µM): 24.8% | viability, T/C [5]: 100% | viability, T/C [6]: 99.5% | viability, T/C [7]: 73.8% | viability, T/C [8]: 60.1% | viability, T/C (second compound 0.1 µM, first compound 0.316 µM): 42.4% | viability, T/C (second compound 0.1 µM, first compound 1 µM): 25.8% | viability, T/C [9]: 107% | viability, T/C [10]: 98.9% | viability, T/C [11]: 71.5% | viability, T/C [12]: 49% | viability, T/C (second compound 0.316 µM, first compound 0.316 µM): 42.3% | viability, T/C (second compound 0.316 µM, first compound 1 µM): 23.9% | viability, T/C [13]: 94.1% | viability, T/C [14]: 81.8% | viability, T/C [15]: 74.9% | viability, T/C [16]: 49.9% | viability, T/C (second compound 1 µM, first compound 0.316 µM): 32.4% | viability, T/C (second compound 1 µM, first compound 1 µM): 23.1% | viability, T/C [17]: 73.2% | viability, T/C [18]: 71.5% | viability, T/C [19]: 63.2% | viability, T/C [20]: 46% | viability, T/C (second compound 3.16 µM, first compound 0.316 µM): 29.4% | viability, T/C (second compound 3.16 µM, first compound 1 µM): 21.3% | viability, T/C [21]: 73.2% | viability, T/C [22]: 67.7% | viability, T/C [23]: 48.1% | viability, T/C [24]: 39.4% | viability, T/C (second compound 10 µM, first compound 0.316 µM): 28.9% | viability, T/C (second compound 10 µM, first compound 1 µM): 19.3%

NC(=O)C(=Cn1cnc(-c2cc(C(F)(F)F)cc(C(F)(F)F)c2)n1)c1cncnc1 + Cc1c(S(C)(=O)=O)c(-c2cc(F)cc(N3CCN(c4ccc(NS(=O)(=O)c5ccc(NC(CCN6CCC(C(=O)OCCCP(=O)(O)O)CC6)CSc6ccccc6)c(S(=O)(=O)C(F)(F)F)c5)cc4)CC3)c2)c(-c2ccc(Cl)cc2)n1C(C)C
IC50 (second compound 0.0316 µM): > 300 nM | IC50 (second compound 0.1 µM): > 300 nM | IC50 (second compound 0.316 µM): > 300 nM | IC50 (second compound 1 µM): 205 nM | IC50 (second compound 3.16 µM): 114 nM | IC50 (second compound 10 µM): 63.7 nM | viability, T/C (second compound 0.0316 µM, first compound 0.000949 µM): 111% | viability, T/C (second compound 0.0316 µM, first compound 0.003 µM): 96.9% | viability, T/C (second compound 0.0316 µM, first compound 0.00949 µM): 115% | viability, T/C (second compound 0.0316 µM, first compound 0.03 µM): 89.1% | viability, T/C (second compound 0.0316 µM, first compound 0.0949 µM): 81.5% | viability, T/C (second compound 0.0316 µM, first compound 0.3 µM): 55.8% | viability, T/C (second compound 0.1 µM, first compound 0.000949 µM): 95.2% | viability, T/C (second compound 0.1 µM, first compound 0.003 µM): 92.8% | viability, T/C (second compound 0.1 µM, first compound 0.00949 µM): 92% | viability, T/C (second compound 0.1 µM, first compound 0.03 µM): 94.8% | viability, T/C (second compound 0.1 µM, first compound 0.0949 µM): 78% | viability, T/C (second compound 0.1 µM, first compound 0.3 µM): 53.8% | viability, T/C (second compound 0.316 µM, first compound 0.000949 µM): 94% | viability, T/C (second compound 0.316 µM, first compound 0.003 µM): 100% | viability, T/C (second compound 0.316 µM, first compound 0.00949 µM): 93.3% | viability, T/C (second compound 0.316 µM, first compound 0.03 µM): 84.9% | viability, T/C (second compound 0.316 µM, first compound 0.0949 µM): 76.1% | viability, T/C (second compound 0.316 µM, first compound 0.3 µM): 49.8% | viability, T/C (second compound 1 µM, first compound 0.000949 µM): 91% | viability, T/C (second compound 1 µM, first compound 0.003 µM): 88.6% | viability, T/C (second compound 1 µM, first compound 0.00949 µM): 80.2% | viability, T/C (second compound 1 µM, first compound 0.03 µM): 77.6% | viability, T/C (second compound 1 µM, first compound 0.0949 µM): 64.4% | viability, T/C (second compound 1 µM, first compound 0.3 µM): 42.6% | viability, T/C (second compound 3.16 µM, first compound 0.000949 µM): 79% | viability, T/C (second compound 3.16 µM, first compound 0.003 µM): 78.1% | viability, T/C (second compound 3.16 µM, first compound 0.00949 µM): 76% | viability, T/C (second compound 3.16 µM, first compound 0.03 µM): 63.1% | viability, T/C (second compound 3.16 µM, first compound 0.0949 µM): 55% | viability, T/C (second compound 3.16 µM, first compound 0.3 µM): 32.6% | viability, T/C (second compound 10 µM, first compound 0.000949 µM): 69.9% | viability, T/C (second compound 10 µM, first compound 0.003 µM): 68.7% | viability, T/C (second compound 10 µM, first compound 0.00949 µM): 63.1% | viability, T/C (second compound 10 µM, first compound 0.03 µM): 63.6% | viability, T/C (second compound 10 µM, first compound 0.0949 µM): 43% | viability, T/C (second compound 10 µM, first compound 0.3 µM): 30.3%

NC1CCC(NC2CC2c2ccccc2)CC1 (stereo unspecified) + Cc1c(S(C)(=O)=O)c(-c2cc(F)cc(N3CCN(c4ccc(NS(=O)(=O)c5ccc(NC(CCN6CCC(C(=O)OCCCP(=O)(O)O)CC6)CSc6ccccc6)c(S(=O)(=O)C(F)(F)F)c5)cc4)CC3)c2)c(-c2ccc(Cl)cc2)n1C(C)C
IC50 (second compound 0.0316 µM): > 100 nM | IC50 (second compound 0.1 µM): > 100 nM | IC50 (second compound 0.316 µM): > 100 nM | IC50 (second compound 1 µM): > 100 nM | IC50 (second compound 3.16 µM): > 100 nM | IC50 (second compound 10 µM): > 100 nM | viability, T/C (second compound 0.0316 µM, first compound 0.000316 µM): 105% | viability, T/C (second compound 0.0316 µM, first compound 0.001 µM): 107% | viability, T/C [1]: 107% | viability, T/C [2]: 109% | viability, T/C [3]: 122% | viability, T/C [4]: 112% | viability, T/C (second compound 0.1 µM, first compound 0.000316 µM): 105% | viability, T/C (second compound 0.1 µM, first compound 0.001 µM): 99.2% | viability, T/C [5]: 120% | viability, T/C [6]: 113% | viability, T/C [7]: 109% | viability, T/C [8]: 99% | viability, T/C (second compound 0.316 µM, first compound 0.000316 µM): 108% | viability, T/C (second compound 0.316 µM, first compound 0.001 µM): 101% | viability, T/C [9]: 96.6% | viability, T/C [10]: 103% | viability, T/C [11]: 104% | viability, T/C [12]: 102% | viability, T/C (second compound 1 µM, first compound 0.000316 µM): 94.4% | viability, T/C (second compound 1 µM, first compound 0.001 µM): 100% | viability, T/C [13]: 93.9% | viability, T/C [14]: 106% | viability, T/C [15]: 96.5% | viability, T/C [16]: 92.2% | viability, T/C (second compound 3.16 µM, first compound 0.000316 µM): 84.5% | viability, T/C (second compound 3.16 µM, first compound 0.001 µM): 82.1% | viability, T/C [17]: 81.5% | viability, T/C [18]: 76.5% | viability, T/C [19]: 90% | viability, T/C [20]: 81.2% | viability, T/C (second compound 10 µM, first compound 0.000316 µM): 83% | viability, T/C (second compound 10 µM, first compound 0.001 µM): 70.1% | viability, T/C [21]: 66.5% | viability, T/C [22]: 84% | viability, T/C [23]: 81.9% | viability, T/C [24]: 73%
